According to patent publication US10946019B2, “Nurr1:RXR activating compounds for simultaneous treatment of symptoms and pathology of Parkinson's disease” (priority 2015, dated 2021):

Experiments:
striatal DA levels = assay: Striatal dopamine and metabolite levels by HPLC-ECD in wild type mice; format: in vivo, mouse
Experimental: 4 hours after dosing, animals were killed by cervical dislocation, brains were removed, and the striata were dissected on ice. The samples were immediately frozen and stored at −80° C. until use. The tissues were processed for the analysis by high performance liquid chromatography (HPLC) with an electrochemical detector (ECD) (Emmanouil et al., 2006). The dissected tissues were weighed, homogenized, and deproteinized in 0.2N perchloric acid solution containing 7.9 mM Na2S2O5 and 1.3 mM Na2EDTA. The homogenate was centrifuged at 37,000×g for 30 minutes, and the supernatant was stored at −80° C. until assayed. A reverse-phase ion-pair chromatography was used in all analyses, and the mobile phase consisted of an acetonitrile-50 mM phosphate buffer at pH 3.0, containing 5-octylsulfate sodium salt (300 mg/L) as the ion-pair reagent and (20 mg/L) Na2EDTA. Reference standards were prepared in 0.2 N perchloric acid solution containing 7.9 mM Na2S2O5 and 1.3 mM Na2EDTA. Samples were quantified by comparison of the areas under the peaks with those of reference standards using HPLC software (Chromatography Station for Windows™, Watrex International Inc., San Francisco, Calif.). […]

C57/BL6 mice = assay: Porsolt forced swim test after chronic mild stress; format: in vivo, mouse; conditions: CMS mice, 2×10 mg/kg IP spaced 2 hours apart, 4 hours after last injection
Experimental: The chronic mild stress (CMS) procedure was applied semi randomly to each mouse and consisted of a variety of unpredictable mild environmental, social and physical stressors, including confinement in a small tube (1 hours), an empty cage without sawdust (15 hours), water and food deprivation (15 hours), food restriction (approximately 50 mg of food pellets, 3 hours), cage tilted at 45° (1-3 hours), damp sawdust (approximately 200 ml of water per 100 g of sawdust, 3 hours), paired housing in damp sawdust (18 hours), reversal of the light/dark cycle, 2-hour light/dark succession every 30 minutes, as well as light (15-17 hours) and dark (4-6 hours). Compound 3 (2×10 mg/kg spaced 2 hours apart) or vehicle control (Ethanol:PG:Saline, 10:30:60), was administered IP to mice. 4 hours after the last injection, mice were evaluated in the Porsolt forced swim test. […] Recorded behaviors for “floating” (the mouse is completely still in the water, except for isolated movements to right itself) and “swimming” (movement of all four legs with body aligned horizontally in the water) were measured (in seconds) for each mouse.

Neuro2A cells = assay: MPP+ induced toxicity in Neuro2A cells; format: cell-based
Experimental: MPP+, eradicates approximately 75% of the cells in 24 hours. […] Naive Neuro2A cells (FIG. 2A) or SH-SY5Y neuroblastoma cells FIG. 2B,C) were cultured in RPMI 1640, 10% fetal bovine serum at 37° C. Cells were pretreated with compound 3 for 12-24 h. Subsequent change of culture medium with addition of 0, 1, 2 and 4 mM MPP+ induced cell death. MTT assays determined the relative number of surviving cells FIG. 2D).

[1] = test system: C57BL/6 mice injected unilaterally with 6-OHDA; assay: Neuroprotection in the unilateral 6-OHDA mouse model; conditions: for reduction of apomorphine induced contralateral turns: 10 mg/kg IP every 12 hours

## C=CCc1c(N(C)c2ccc(C(=O)O)cc2)nc(-c2ccccc2)nc1C(F)(F)F [Example 3, 4-((5-allyl-2-phenyl-6-(trifluoromethyl)pyrimidin-4-yl)(methyl)amino)benzoic acid]
Striatal DA levels; wild type C57/BL6 mice, single IP 20 mg/kg, 4 hours after dosing
  increase of striatal DA levels and dopamine metabolite (DOPAC and HVA) levels: 33%
Striatal DA levels; wt mice, single IP 10 mg/kg, 4 hours
  striatal DA and DA metabolite levels: increased
C57/BL6 mice
  decrease of floating time: 61.48%
  increase of swimming time: 31.7%
Neuro2A cells
  protection from MPP+ induced toxicity: protects
[1]; 6-OHDA, 10 mg/kg IP every 12 hours for 14 days
  motor coordination (rotarod test): almost entirely restored to control levels
[1]; 6-OHDA, vs vehicle, listed as Compound 3
  reduction of apomorphine induced contralateral turns: approximately 8 fold
[1]; 6-OHDA, vs vehicle, listed as compound 3
  reduction of apomorphine induced contralateral turns: over 8 fold
[1]; 6-OHDA, IP 10 mg/kg every 12 hours for 15 days
  increase in number of surviving neuronal bodies (SNpc): 256.55%
[1]; 6-OHDA, vs vehicle
  preservation of striatal TH(+) DAergic projections (innervation): 10 fold
[1]; unilateral 6-OHDA, compound 3 vs vehicle (n=5)
  Rotarod test improvement: 12 fold
